Test results published in paper PMC6204753, “Non-native autoinducer analogs capable of modulating the SdiA quorum sensing receptor in Salmonella enterica serovar Typhimurium” (Beilstein Journal of Organic Chemistry, 2018).

Target: SdiA (Salmonella enterica subsp. enterica serovar Typhimurium, UniProt O66040)
Experiment: S. Typhimurium-pJNS25 SdiA reporter, competitive antagonism against 10 nM L-OOHL
Format: cell-based
Conditions: for Antagonism 1 μM Inhibition (%): 1 μM compound; for Antagonism 1 μM Inhibition (%) / Antagonism 100 μM Inhibition (%): average ± STD, change in activity from 10 nM 2 (OOHL); for Antagonism 100 μM Inhibition (%): 100 μM compound
Description: Biological assays for SdiA activity. Cell-based reporter strains that rely on detecting the transcriptional activity of LuxR-type receptors are commonly used to assess the activity of exogenous ligands. We used the S. Typhimurium-pJNS25 reporter strain constructed by Smith and Ahmer and also used by Janssens et al. to examine SdiA activity. This strain naturally produces SdiA and contains a reporter plasmid with the promoter region for srgE fused to the luxABCDE operon of V. fischeri (see Experimental section for details of all strains and plasmids). SdiA activity is thus reported by the production of luciferase and resulting bioluminescence. We also prepared an SdiA reporter in E. coli (JLD271-pJN105SE-pSC11SE) to examine S. Typhimurium SdiA activity in an alternate background and with a different reporter gene output. […] This reporter construct uses an arabinose inducible promoter to produce S. Typhimurium SdiA and the promoter region for srgE fused to lacZ to report SdiA activity. SdiA activity is then measured using standard β-galactosidase assays. In both reporter strains, signal was normalized to the difference between the positive control (10 μM OOHL) and the negative control (1% DMSO; no compound).
Salmonella SdiA reporter assay. S. Typhimurium-pJNS25 was grown 16–18 h overnight in LB, diluted 1:100 in fresh LB medium, and then incubated for 6 h at 37 °C with shaking at 200 rpm in the presence of compounds (1% DMSO). […] All compounds were screened at 100 μM and 1 μM in triplicate in agonism and antagonism assays. […] Dose–response analyses were performed by preparing dilutions of compounds in DMSO and testing each concentration in the agonism or antagonism assays. Competition dose–response assays (data in Figure 5) were performed in the same manner as the antagonism assays, except instead of OOHL being added to the subculture, the antagonist being tested was added. Non-linear regression curve fits were generated using GraphPad Prism software (version 6) using variable slope (four parameter) dose–response analysis.

SdiA, sequence (O66040 entry or part of it): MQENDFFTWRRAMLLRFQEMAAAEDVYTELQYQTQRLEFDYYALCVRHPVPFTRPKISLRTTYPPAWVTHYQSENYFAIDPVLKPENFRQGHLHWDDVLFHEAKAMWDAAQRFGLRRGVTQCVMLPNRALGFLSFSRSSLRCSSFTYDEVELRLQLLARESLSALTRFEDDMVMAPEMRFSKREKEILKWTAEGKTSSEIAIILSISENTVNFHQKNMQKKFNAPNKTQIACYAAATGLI

Structure (SMILES)	Antagonism 1 μM Inhibition (%)	Antagonism 100 μM Inhibition (%)	SdiA antagonism (in words) (S. Typhimurium reporter)
Cc1nc(-c2ccccc2)oc1CC(=O)N[C@H]1CCOC1=O [D4]	28 ± 13	-6 ± 4	
Cc1ccc(C(=O)CCC(=O)N[C@H]2CCOC2=O)cc1 [D6]	21 ± 19	3 ± 12	
O=C(N[C@H]1CCOC1=O)c1cnn(-c2ccccc2)c1C(F)(F)F [D9]	26 ± 6	9 ± 1	
O=C(N[C@H]1CCOC1=O)c1ccc(-c2csnn2)cc1 [D10]	23 ± 6	14 ± 12	
CCCCCCCCc1ccc(C(=O)N[C@H]2CCOC2=O)cc1 [D13]	17 ± 7	23 ± 7	
COc1cc(C(C)=O)ccc1OCC(=O)N[C@H]1CCOC1=O [D16]	19 ± 6	3 ± 6	
COc1ccccc1C1CCN(c2ccc(/C=C/C(=O)N[C@H]3CCOC3=O)cc2[N+](=O)[O-])CC1 [D18]	18 ± 8	32 ± 5	
COc1cccc(CC(=O)N[C@H]2CCOC2=O)c1 [E2]	-5 ± 1	-8 ± 14	
O=C(Cc1cccc(C(F)(F)F)c1)N[C@H]1CCOC1=O [E3]	-14 ± 16	5 ± 8	
N#Cc1ccc(CC(=O)N[C@H]2CCOC2=O)cc1 [E4]	12 ± 6	-17 ± 18	
O=C(Cc1ccc(SC(F)(F)F)cc1)N[C@H]1CCOC1=O [E8]	34 ± 11	31 ± 7	
O=C(Cc1cc(C(F)(F)F)cc(C(F)(F)F)c1)N[C@H]1CCOC1=O [E9]	18 ± 8	21 ± 8	
O=C(Cc1ccc2ccccc2c1)N[C@H]1CCOC1=O [E12]	-13 ± 9	0 ± 15	
O=C(COc1cccc([N+](=O)[O-])c1)N[C@H]1CCOC1=O [E25]	5 ± 18	9 ± 12	
COc1ccc(CCC(=O)N[C@H]2CCOC2=O)cc1 [E28]	11 ± 18	6 ± 15	
O=C(CCc1cccc(Br)c1)N[C@H]1CCOC1=O [E31]	13 ± 10	6 ± 6	
O=C(CCc1ccc(I)cc1)N[C@H]1CCOC1=O [E32]	19 ± 14	24 ± 13	
O=C(CCc1ccc([N+](=O)[O-])cc1)N[C@H]1CCOC1=O [E37]	34 ± 5	23 ± 5	
O=C(CCc1cccc([N+](=O)[O-])c1)N[C@H]1CCOC1=O [E38]	15 ± 11	32 ± 6	
O=C(CCc1ccc2c(c1)OCO2)N[C@H]1CCOC1=O [E39]	10 ± 15	12 ± 3	
CCCCCCCCCCCC(=O)N[C@H]1CCSC1=O [F4]	-2 ± 11	2 ± 5	
CCCCCCC(=O)N[C@H]1CCSC1=O [F6]	5 ± 5	-2 ± 7	
CCCCCC(=O)N[C@H]1CCSC1=O [F7]	7 ± 9	-12 ± 4	
O=C(Cc1ccccc1)N[C@H]1CCSC1=O [F9]	-1 ± 4	-13 ± 1	
O=C(Cc1ccc(Br)cc1)N[C@H]1CCSC1=O [F10]	8 ± 12	-3 ± 7	

Structure (SMILES)	Antagonism 1 μM Inhibition (%)	Antagonism 100 μM Inhibition (%)	SdiA antagonism (in words) (S. Typhimurium reporter)
O=C(Cc1cccc([N+](=O)[O-])c1)NC1CCCC1 [F18]	4 ± 6	15 ± 3	
O=C(Cc1cccc([N+](=O)[O-])c1)Nc1ccccc1 [F25]	20 ± 4	-2 ± 14	
O=C(Cc1cccc([N+](=O)[O-])c1)NCc1cccc([N+](=O)[O-])c1 [F55]	11 ± 4	26 ± 7	
CCCCCC(O)CC(=O)N[C@H]1CCOC1=O (some centres unmarked) [H2]	8 ± 5	12 ± 16	
CCCCCCCCCCCCCC(O)CC(=O)N[C@H]1CCOC1=O (some centres unmarked) [H6]	15 ± 1	15 ± 13	
O=C(CC(O)Cc1cccc(I)c1)N[C@H]1CCOC1=O (some centres unmarked) [H15]	6 ± 14	19 ± 11	
O=C(CC(=O)N[C@H]1CCOC1=O)Cc1cccc(Cl)c1 [H23]	12 ± 8	1 ± 9	
CCCCCCCCCCCCCC(=O)CC(=O)N[C@H]1CCOC1=O [H25]	1 ± 13	-9 ± 15	
CCCCCCCCCCCCCC(=O)N[C@H]1CCOC1=O [H26]	5 ± 14	0 ± 8	failed to inhibit SdiA
O=C(N[C@H]1CCOC1=O)c1ccccc1Br [Q1]	2 ± 5	-3 ± 18	
O=C(N[C@H]1CCOC1=O)c1cccc(Br)c1 [Q2]	17 ± 2	9 ± 13	
O=C(N[C@H]1CCOC1=O)c1ccc(F)cc1 [Q3]	34 ± 2	-26 ± 17	
O=C(N[C@H]1CCOC1=O)c1ccc(Cl)cc1 [Q4]	30 ± 4	-25 ± 15	
O=C(N[C@H]1CCOC1=O)c1ccc(I)cc1 [Q5]	28 ± 10	-14 ± 10	
COc1ccc(C(=O)N[C@H]2CCOC2=O)cc1 [Q6]	26 ± 18	-6 ± 14	
O=C(N[C@H]1CCOC1=O)c1ccc([N+](=O)[O-])cc1 [Q7]	28 ± 7	20 ± 9	
Cc1ccc(C(=O)N[C@H]2CCOC2=O)cc1 [Q8]	17 ± 3	11 ± 3	
O=C(N[C@H]1CCOC1=O)c1ccc2c(c1)OCO2 [Q11]	7 ± 7	-2 ± 12	
O=C(N[C@H]1CCOC1=O)c1ccc(-c2ccccc2)cc1 [Q12]	20 ± 9	26 ± 14	
CC(C)(C)OC(=O)Nc1ccc(C(=O)N[C@H]2CCOC2=O)cc1 [Q13]	19 ± 8	-14 ± 2	
CCOc1ccc(C(=O)N[C@H]2CCOC2=O)cc1 [R1]	22 ± 6	13 ± 8	
CCCOc1ccc(C(=O)N[C@H]2CCOC2=O)cc1 [R2]	16 ± 9	11 ± 6	
CC(C)Oc1ccc(C(=O)N[C@H]2CCOC2=O)cc1 [R3]	23 ± 8	11 ± 10	
CCCCOc1ccc(C(=O)N[C@H]2CCOC2=O)cc1 [R4]	23 ± 9	11 ± 12	
CCCCCOc1ccc(C(=O)N[C@H]2CCOC2=O)cc1 [R5]	10 ± 18	-1 ± 9	
